For experiment [1], the system named is C33A cervical carcinoma cells. As to the kind of experiment: Cancer cell viability by cellular ATP levels (ViaLight), C33A. The class given is cell-based. The following applies: Homo sapiens, C-33-A, 72 h, 3 days of incubation, ATP levels relative to untreated control. The method, then:
(§1) Selected cell lines included C33A cervical carcinoma cells and H1299 human non-small cell lung cancer-cells (American Type Culture Collection, Manassas, Va. USA), which were cultured in the media recommended by the American Type Culture Collection. The cells lines were plated in 96-well microtiter plates (PerkinElmer Life Sciences Inc, Boston, Mass., USA) at a confluency that allowed them to reach confluence after 4 days of growth. One day after plating, the cells were treated with various concentrations of Compounds. Stock solutions of the Compounds were prepared in dimethyl sulfoxide (Sigma-Aldrich Inc., St. Louis, Mo., USA), diluted in the recommended media and then added to the cells. The total dimethyl sulfoxide on the cells was 0.1%. After 3 days of incubation the ATP levels in the cells were quantified using a luminescent ViaLight detection system (Bio-Whittaker, MD, USA). The results were plotted relative to untreated control cells, which were set at a value of 100. The IC50s were determined using a best-fit sigmoidal dose response curve with variable slope.

Experiment [2] relates to H1299 human non-small cell lung cancer-cells. As to the kind of experiment: Cancer cell viability by cellular ATP levels (ViaLight), H1299. The class given is cell-based. The following applies: NCI-H1299, 72 h, 3 days of incubation, ATP levels relative to untreated control. The method, then:
as §1

What is called IC50 is the point on the concentration scale where inhibition reaches its midpoint. Higher therefore signals lower potency. For `COC1=CC(c2ccccc2)=NC1=Cc1[nH]c(C)cc1C` [Compound 1, 3-methoxy-2-((3,5-dimethyl-1H-pyrrol-2-yl)methylene)-5-phenyl-2H-pyrrole], the IC50 came to 10000 nM in experiment [1] and 10 µM in experiment [2].
With `COC1=CC(c2ccc(Cl)cc2)=NC1=Cc1[nH]c(C)cc1C` [Compound 2, 5-(4-chlorophenyl)-3-methoxy-2-((3,5-dimethyl-1H-pyrrol-2-yl)methylene)-2H-pyrrole], the concentration for half-maximal inhibition (IC50) in experiment [1] was found to be 2500 nM; in experiment [2] it was 10 µM.
In the same order, the values of `COC1=CC(c2ccc(F)cc2F)=NC1=Cc1[nH]c(C)cc1C` [Compound 3, 2-((5-(2,4-difluorophenyl)-3-methoxy-2H-pyrrol-2-ylidene)methyl)-3,5-dimethyl-1H-pyrrole] are 3000 nM and 10 µM.
In the same order, the values of `COC1=CC(c2cccc3ncccc23)=NC1=Cc1[nH]c(C)cc1C` [Compound 4, 5-(4-methoxy-5-((3,5-dimethyl-1H-pyrrol-2-yl)methylene)-5H-pyrrol-2-yl)quinoline] are 16600 nM and 16.6 µM.
Take `COC1=CC(c2ccc(F)cc2)=NC1=Cc1[nH]c(C)cc1C` [Compound 5, 5-(4-fluorophenyl)-3-methoxy-2-((3,5-dimethyl-1H-pyrrol-2-yl)methylene)-2H-pyrrole]: the figures for the half-inhibitory concentration (IC50) in experiment [1] and in experiment [2] were 2200 nM and 10 µM, respectively.
The matching figures for `COC1=CC(c2cccs2)=NC1=Cc1[nH]c(C)cc1C` [Compound 6, 2-((3-methoxy-5-(thiophen-2-yl)-2H-pyrrol-2-ylidene)methyl)-3,5-dimethyl-1H-pyrrole]: 6500 nM and 8.5 µM.
Turning to `COC1=CC(c2ccc(Br)s2)=NC1=Cc1[nH]c(C)cc1C` [Compound 7, 2-((5-(5-bromothiophen-2-yl)-3-methoxy-2H-pyrrol-2-ylidene)methyl)-3,5-dimethyl-1H-pyrrole], the figures for the IC50 in experiment [1] and in experiment [2] were 9500 nM and 15 µM, respectively.
`COC1=CC(c2ccc(NS(C)(=O)=O)cc2)=N/C1=C\c1[nH]c(C)cc1C` [Compound 8, N-4-(4-methoxy-5-((3,5-dimethyl-1H-pyrrol-2-yl)methylene)-5H-pyrrol-2-yl)-phenyl-methylsulfonamide]: the IC50 in experiment [1] was determined as 8000 nM; in experiment [2], 10 µM.
`COC1=CC(c2ccc(C=O)cc2)=NC1=Cc1[nH]c(C)cc1C` [Compound 9, 4-(4-methoxy-5-((3,5-dimethyl-1H-pyrrol-2-yl)methylene)-5H-pyrrol-2-yl)benzaldehyde]: the IC50 stood at 10600 nM in experiment [1] and 21.6 µM in experiment [2].
Take `COC1=CC(c2cc3ccccc3s2)=NC1=Cc1[nH]c(C)cc1C` [Compound 10, 2-((5-(benzo[b]thiophen-2-yl)-3-methoxy-2H-pyrrol-2-ylidene)methyl)-3,5-dimethyl-1H-pyrrole]: the figures for the IC50 in experiment [1] and in experiment [2] were 3000 nM and 4.6 µM, respectively.
For the molecule `COC1=CC(c2ccc(OC)cc2C=O)=NC1=Cc1[nH]c(C)cc1C` [Compound 11, 5-methoxy-2-(4-methoxy-5-((3,5-dimethyl-1H-pyrrol-2-yl)methylene)-5H-pyrrol-2-yl)benzaldehyde], the concentration for half-maximal inhibition (IC50) is 7000 nM in experiment [1] and 12.5 µM in experiment [2].
Consider `COC1=CC(c2cccc([N+](=O)[O-])c2)=NC1=Cc1[nH]c(C)cc1C` [Compound 12, 2-((3-methoxy-5-(3-nitrophenyl)-2H-pyrrol-2-ylidene)methyl)-3,5-dimethyl-1H-pyrrole], for which the results for the IC50 in experiment [1] and in experiment [2] were 15000 nM and 14 µM, respectively.
The matching figures for `COC1=CC(c2ccco2)=NC1=Cc1[nH]c(C)cc1C` [Compound 13, 2-((5-(furan-2-yl)-3-methoxy-2H-pyrrol-2-ylidene)methyl)-3,5-dimethyl-1H-pyrrole]: 2000 nM and 40 µM.
Turning to `COC1=CC(c2ccoc2)=NC1=Cc1[nH]c(C)cc1C` [Compound 14, 2-((5-(furan-3-yl)-3-methoxy-2H-pyrrol-2-ylidene)methyl)-3,5-dimethyl-1H-pyrrole], the IC50 in experiment [1] was 700 nM; in experiment [2], 6.5 µM.
For the molecule `COC1=CC(c2ccsc2)=NC1=Cc1[nH]c(C)cc1C` [Compound 15, 2-((3-methoxy-5-(thiophen-3-yl)-2H-pyrrol-2-ylidene)methyl)-3,5-dimethyl-1H-pyrrole], the IC50 in experiment [1] was determined as 750 nM; in experiment [2], 6.6 µM.
In the same order, the values of `COC1=CC(c2ccc(OC)cc2OC)=NC1=Cc1[nH]c(C)cc1C` [Compound 16, 2-((3-methoxy-5-(2,4-dimethoxyphenyl)-2H-pyrrol-2-ylidene)methyl)-3,5-dimethyl-1H-pyrrole] are 3000 nM and 4.5 µM.
For the molecule `COC1=CC(c2ccc(OC)c(OC)c2)=NC1=Cc1[nH]c(C)cc1C` [Compound 17, 2-((3-methoxy-5-(3,4-dimethoxyphenyl)-2H-pyrrol-2-ylidene)methyl)-3,5-dimethyl-1H-pyrrole], the IC50 in experiment [1] was 210 nM; in experiment [2] it was 0.58 µM.
As for `COC1=CC(c2ccc(OC)c(OC)c2OC)=NC1=Cc1[nH]c(C)cc1C` [Compound 18, 2-((3-methoxy-5-(2,3,4-trimethoxyphenyl)-2H-pyrrol-2-ylidene)methyl)-3,5-dimethyl-1H-pyrrole], the IC50 in experiment [1] turned out to be 2000 nM; in experiment [2], 4 µM.
In the same order, the values of `COC1=CC(c2cc(OC)ccc2OC)=NC1=Cc1[nH]c(C)cc1C` [Compound 19, 2-((3-methoxy-5-(2,5-dimethoxyphenyl)-2H-pyrrol-2-ylidene)methyl)-3,5-dimethyl-1H-pyrrole] are 20000 nM and 20 µM.
In the same order, the values of `COC1=CC(c2ccc3c(c2)OCO3)=NC1=Cc1[nH]c(C)cc1C` [Compound 20, 2-((5-(benzo[d][1,3]dioxol-5-yl)-3-methoxy-2H-pyrrol-2-ylidene)methyl)-3,5-dimethyl-1H-pyrrole] are 210 nM and 0.55 µM.
As to `COC1=CC(c2ccc(OCCN3CCCC3)cc2)=NC1=Cc1[nH]c(C)cc1C` [Compound 21, 2-((5-(4-(2-(pyrrolidin-1-yl)ethoxy)phenyl)-3-methoxy-2H-pyrrol-2-ylidene)methyl)-3,5-dimethyl-1H-pyrrole], the IC50 turned out to be 690 nM in experiment [1] and 1.34 µM in experiment [2].
`COC1=CC(c2ccc(N(C)C)cc2)=NC1=Cc1[nH]c(C)cc1C` [Compound 22, 4-(4-methoxy-5-((3,5-dimethyl-1H-pyrrol-2-yl)methylene)-5H-pyrrol-2-yl)-N,N-dimethylbenzenamine]: the IC50 in experiment [1] is 290 nM; in experiment [2], 0.42 µM.
The matching figures for `COC1=CC(c2ccc3c(c2)OCCO3)=NC1=Cc1[nH]c(C)cc1C` [Compound 23, 2-((5-(2,3-dihydrobenzo[b][1,4]dioxin-7-yl)-3-methoxy-2H-pyrrol-2-ylidene)methyl)-3,5-dimethyl-1H-pyrrole]: 1600 nM and 7.55 µM.
Regarding `COC1=CC(c2ccc(OC)c(C)c2)=NC1=Cc1[nH]c(C)cc1C` [Compound 24, 2-((3-methoxy-5-(4-methoxy-3-methylphenyl)-2H-pyrrol-2-ylidene)methyl)-3,5-dimethyl-1H-pyrrole], the 50% inhibitory concentration (IC50) is 503 nM in experiment [1] and 1.06 µM in experiment [2].
For `COC1=CC(c2ccc(C(=O)N3CCCC3)cc2)=NC1=Cc1[nH]c(C)cc1C` [Compound 25, (4-(4-methoxy-5-((3,5-dimethyl-1H-pyrrol-2-yl)methylene)-5H-pyrrol-2-yl)phenyl)(pyrrolidin-1-yl)methanone], the IC50 in experiment [1] came out at 7750 nM; in experiment [2], 16.5 µM.
On to `COC1=CC(c2ccc(OC)c(F)c2)=NC1=Cc1[nH]c(C)cc1C` [Compound 26, 2-((5-(3-fluoro-4-methoxyphenyl)-3-methoxy-2H-pyrrol-2-ylidene)methyl)-3,5-dimethyl-1H-pyrrole], for which the figures for the IC50 in experiment [1] and in experiment [2] were 849 nM and 3.65 µM, respectively.
In the case of `COC1=CC(c2ccc3cc(OC)ccc3c2)=NC1=Cc1[nH]c(C)cc1C` [Compound 27, 2-((3-methoxy-5-(2-methoxynaphthalen-6-yl)-2H-pyrrol-2-ylidene)methyl)-3,5-dimethyl-1H-pyrrole], the IC50 in experiment [1] is 7000 nM; in experiment [2], 6.26 µM.
On to `COC1=CC(c2cc(OC)c(OC)c(OC)c2)=NC1=Cc1[nH]c(C)cc1C` [Compound 28, 2-((3-methoxy-5-(3,4,5-trimethoxyphenyl)-2H-pyrrol-2-ylidene)methyl)-3,5-dimethyl-1H-pyrrole], for which the values for the IC50 in experiment [1] and in experiment [2] were 627 nM and 2.38 µM, respectively.
In the case of `COC1=CC(c2ccc(Br)cc2)=NC1=Cc1[nH]c(C)cc1C` [Compound 29, 2-((5-(4-bromophenyl)-3-methoxy-2H-pyrrol-2-ylidene)methyl)-3,5-dimethyl-1H-pyrrole], the IC50 in experiment [1] worked out at 1150 nM; in experiment [2], 6.64 µM.
`COC1=CC(c2cccnc2OC)=NC1=Cc1[nH]c(C)cc1C` [Compound 30, 2-methoxy-3-(4-methoxy-5-((3,5-dimethyl-1H-pyrrol-2-yl)methylene)-5H-pyrrol-2-yl)pyridine]: the IC50 in experiment [1] turned out to be 1200 nM; in experiment [2], 5.69 µM.
On to `COC1=CC(c2ccc3c(c2)OCC3)=NC1=Cc1[nH]c(C)cc1C` [Compound 31, 2-((5-(2,3-dihydrobenzofuran-6-yl)-3-methoxy-2H-pyrrol-2-ylidene)methyl)-3,5-dimethyl-1H-pyrrole], for which the IC50 in experiment [1] turned out to be 212 nM; in experiment [2], 0.668 µM.

For the origin of these results see patent US8420693B2, “Dipyrrole compounds, compositions, and methods for treating cancer or viral diseases” (Gemin X Pharmaceuticals Canada Inc., priority 2004, dated 2013).
